Measurements taken from patent US20080058349A1, “New Compounds 318” (Astrazeneca AB, priority 2006, published 2008).
pIC50: −log10 of the molar value. Where a name gives a salt, the structure may show the parent alone.

The molecules below were run against T1, human β-Secretase (Homo sapiens, UniProt P56817) (assay: TR-FRET assay). Conditions: soluble human β-Secretase (sBACE-Fc), substrate (Europium)CEVNLDAEFK(Qsy7) 100 nM, pH 4.5.
T1 construct: The soluble part of the human β-Secretase (AA 1-AA 460) was cloned; made in house
T1 sequence (P56817 22-460): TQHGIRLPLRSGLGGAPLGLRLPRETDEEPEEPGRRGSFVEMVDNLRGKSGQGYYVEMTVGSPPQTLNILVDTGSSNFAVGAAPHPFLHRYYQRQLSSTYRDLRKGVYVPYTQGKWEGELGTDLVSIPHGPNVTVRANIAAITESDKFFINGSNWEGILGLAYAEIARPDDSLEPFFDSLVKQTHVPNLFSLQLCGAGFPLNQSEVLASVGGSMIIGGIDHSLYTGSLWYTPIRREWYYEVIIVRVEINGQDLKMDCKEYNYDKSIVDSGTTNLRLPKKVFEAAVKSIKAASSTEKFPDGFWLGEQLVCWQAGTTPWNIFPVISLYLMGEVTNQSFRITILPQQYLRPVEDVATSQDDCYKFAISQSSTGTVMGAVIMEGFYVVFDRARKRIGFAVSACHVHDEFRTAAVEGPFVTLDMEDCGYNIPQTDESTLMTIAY
Format: biochemical
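Note: sBACE-Fc from HEK 293 cells, compound preincubated 10 min, then 15 min substrate reaction at RT in darkness, 5% DMSO, DMSO control as 100% and enzyme-free wells as 0%.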

pIC50	Molecule
6.84	4-[5-Amino-7-(3′,5′-dichlorobiphenyl-3-yl)-2,7-dihydro-3H-imidazo[1,5-a]imidazol-7-yl]phenyl methanesulfonate 0.25 acetate [Example 61]

Same assay, conditions: soluble human β-Secretase (sBACE-Fc), substrate (Europium)[…](Qsy7) 100 nM, pH 4.5

pIC50	Molecule
7.68	COc1ccc(C2(c3cccc(-c4cc(Cl)cc(Cl)c4)c3)N=C(N)N3CC(NC(C)=O)CN=C32)cc1 (mixture of isomers) [Example 129, N-[6-amino-8-(3′,5′-dichlorobiphenyl-3-yl)-8-(4-methoxyphenyl)-2,3,4,8-tetrahydroimidazo[1,5-a]pyrimidin-3-yl]acetamide]
6.97	CS(=O)(=O)Oc1cccc(C2(c3cccc(-c4cc(Cl)cc(Cl)c4)c3)N=C(N)N3CCCN=C32)c1 (stereo not shown) [Example 181, 3-[6-Amino-8-(3′,5′-dichlorobiphenyl-3-yl)-2,3,4,8-tetrahydroimidazo[1,5-a]pyrimidin-8-yl]phenyl methanesulfonate]
7.41	COc1ccc(C2(c3cccc(-c4cc(Cl)cc(Cl)c4)c3)N=C(N)N3CC(S(C)(=O)=O)CN=C32)cc1 (stereo not shown) [Example 124, 8-(3′,5′-Dichlorobiphenyl-3-yl)-8-(4-methoxyphenyl)-3-(methylsulfonyl)-2,3,4,8-tetrahydroimidazo[1,5-a]pyrimidin-6-amine 2.0 acetate]
7.47	COc1ccc(C2(c3cccc(-c4cc(Cl)cc(Cl)c4)c3)N=C(N)N3CC(F)CN=C32)cc1 (stereo not shown) [Example 136, 8-(3′,5′-Dichlorobiphenyl-3-yl)-3-fluoro-8-(4-methoxyphenyl)-2,3,4,8-tetrahydroimidazo[1,5-a]pyrimidin-6-amine 1.5 acetate]
6.59	NC1=NC(c2ccccc2)(c2cccc(-c3cccc(Cl)c3)c2)C2=NCCCN12 (stereo not shown) [Example 31, 8-(3′-Chlorobiphenyl-3-yl)-8-phenyl-2,3,4,8-tetrahydroimidazo[1,5-a]pyrimidin-6-amine hydrochloride]
7.47	COc1ccc(C2(c3cccc(-c4cc(Cl)cc(Cl)c4)c3)N=C(N)N3CC(C(=O)O)CN=C32)cc1 (mixture of isomers) [Example 128, 6-Amino-8-(3′,5′-dichlorobiphenyl-3-yl)-8-(4-methoxyphenyl)-2,3,4,8-tetrahydroimidazo[1,5-a]pyrimidine-3-carboxylic acid]
6.14	COc1cc(OS(C)(=O)=O)cc(-c2cccc(C3(c4ccccc4)N=C(N)N4CCCN=C43)c2)c1 (stereo not shown) [Example 103, 3′-(6-Amino-8-phenyl-2,3,4,8-tetrahydroimidazo[1,5-a]pyrimidin-8-yl)-5-methoxybiphenyl-3-yl methanesulfonate hydrochloride]
6.60	COc1cccc(-c2cccc(C3(c4cccc(OS(C)(=O)=O)c4)N=C(N)N4CCCN=C43)c2)c1 (stereo not shown) [Example 183, 3-[6-Amino-8-(3′-methoxybiphenyl-3-yl)-2,3,4,8-tetrahydroimidazo[1,5-a]pyrimidin-8-yl]phenyl methanesulfonate]
7.57	COc1ccc(C2(c3cccc(-c4cc(Cl)cc(Cl)c4)c3)N=C(N)N3CC(C#N)CN=C32)cc1 (mixture of isomers) [Example 127, 6-Amino-8-(3′,5′-dichlorobiphenyl-3-yl)-8-(4-methoxyphenyl)-2,3,4,8-tetrahydroimidazo[1,5-a]pyrimidine-3-carbonitrile]
7.77	COc1ccc(C2(c3cccc(-c4cc(Cl)cc(Cl)c4)c3)N=C(N)N3CC(NS(C)(=O)=O)CN=C32)cc1 (mixture of isomers) [Example 130, N-[6-Amino-8-(3′,5′-dichlorobiphenyl-3-yl)-8-(4-methoxyphenyl)-2,3,4,8-tetrahydroimidazo[1,5-a]pyrimidin-3-yl]methanesulfonamide]
6.52	COc1ccc(F)c(-c2cccc(C3(c4ccccc4)N=C(N)N4CCCN=C43)c2)c1 (stereo not shown) [Example 100, 8-(2′-Fluoro-5′-methoxybiphenyl-3-yl)-8-phenyl-2,3,4,8-tetrahydroimidazo[1,5-a]pyrimidin-6-amine hydrochloride]
6.97	CCCS(=O)(=O)Oc1cccc(C2(c3cccc(-c4cccc(OC)c4)c3)N=C(N)N3CCCN=C32)c1 (stereo not shown) [Example 185, 3-[6-Amino-8-(3′-methoxybiphenyl-3-yl)-2,3,4,8-tetrahydroimidazo[1,5-a]pyrimidin-8-yl]phenyl propane-1-sulfonate]
6.80	COc1ccc(C2(c3cccc(-c4cc(Cl)cc(Cl)c4)c3)N=C(N)N3C2=NCC[C@H]3C(=O)O)cc1 (mixture of isomers) [Example 131, (4S)-6-amino-8-(3′,5′-dichlorobiphenyl-3-yl)-8-(4-methoxyphenyl)-2,3,4,8-tetrahydroimidazo[1,5-a]pyrimidine-4-carboxylic acid]
6.64	NC1=NC(c2ccc(OS(=O)(=O)C(F)(F)F)cc2)(c2cccc(-c3cccc(Cl)c3)c2)C2=NCCN12 (stereo not shown) [Example 96, 4-[5-Amino-7-(3′-chlorobiphenyl-3-yl)-2,7-dihydro-3H-imidazo[1,5-a]imidazol-7-yl]phenyl trifluoromethanesulfonate 0.75 acetate]
6.83	NC1=NC(c2ccccc2)(c2cccc(-c3cc(Cl)cc(Cl)c3)c2)C2=NCCCN12 (stereo not shown) [Example 102, 8-(3′,5′-Dichlorobiphenyl-3-yl)-8-phenyl-2,3,4,8-tetrahydroimidazo[1,5-a]pyrimidin-6-amine hydrochloride]
6.55	CS(=O)(=O)Oc1cccc(C2(c3cccc(-c4cccc(Cl)c4)c3)N=C(N)N3CCCN=C32)c1 (stereo not shown) [Example 182, 3-[6-Amino-8-(3′-chlorobiphenyl-3-yl)-2,3,4,8-tetrahydroimidazo[1,5-a]pyrimidin-8-yl]phenyl methanesulfonate]
7.66	COc1ccc(C2(c3cccc(-c4cc(Cl)cc(Cl)c4)c3)N=C(N)N3CC(O)CN=C32)cc1 (mixture of isomers) [Example 125, 6-Amino-8-(3′,5′-dichlorobiphenyl-3-yl)-8-(4-methoxyphenyl)-2,3,4,8-tetrahydroimidazo[1,5-a]pyrimidin-3-ol]
6.95	NC1=NC(c2ccc(OS(=O)(=O)C(F)(F)F)cc2)(c2cccc(-c3cccc(Cl)c3)c2)C2=NCCCN12 (stereo not shown) [Example 99, 4-[6-Amino-8-(3′-chlorobiphenyl-3-yl)-2,3,4,8-tetrahydroimidazo[1,5-a]pyrimidin-8-yl]phenyl trifluoromethanesulfonate acetate]
6.42	NC1=NC(c2ccccc2)(c2cccc(-c3cc(Cl)ccc3F)c2)C2=NCCCN12 (stereo not shown) [Example 101, 8-(5′-Chloro-2′-fluorobiphenyl-3-yl)-8-phenyl-2,3,4,8-tetrahydroimidazo[1,5-a]pyrimidin-6-amine hydrochloride]
7.39	COc1ccc(C2(c3cccc(-c4cc(Cl)cc(Cl)c4)c3)N=C(N)N3CC(OC)CN=C32)cc1 (mixture of isomers) [Example 126, 8-(3′,5′-Dichlorobiphenyl-3-yl)-3-methoxy-8-(4-methoxyphenyl)-2,3,4,8-tetrahydroimidazo[1,5-a]pyrimidin-6-amine]
5.92	CS(=O)(=O)Oc1cccc(C2(c3cccc(-c4cc(C(F)(F)F)cc(C(F)(F)F)c4)c3)N=C(N)N3CCCN=C32)c1 (stereo not shown) [Example 176, 3-[6-Amino-8-[3′,5′-bis(trifluoromethyl)biphenyl-3-yl]-2,3,4,8-tetrahydroimidazo[1,5-a]pyrimidin-8-yl]phenyl methanesulfonate]
7.29	NC1=NC(c2cccc(OS(=O)(=O)C3CC3)c2)(c2cccc(-c3cc(Cl)cc(Cl)c3)c2)C2=NCCCN12 (stereo not shown) [Example 186, 3-[6-Amino-8-(3′,5′-dichlorobiphenyl-3-yl)-2,3,4,8-tetrahydroimidazo[1,5-a]pyrimidin-8-yl]phenyl cyclopropanesulfonate]
7.16	CCCS(=O)(=O)Oc1cccc(C2(c3cccc(-c4cc(Cl)cc(Cl)c4)c3)N=C(N)N3CCCN=C32)c1 (stereo not shown) [Example 184, 3-[6-Amino-8-(3′,5′-dichlorobiphenyl-3-yl)-2,3,4,8-tetrahydroimidazo[1,5-a]pyrimidin-8-yl]phenyl propane-1-sulfonate]
6.61	NC1=NC(c2cccc(OS(=O)(=O)C(F)(F)F)c2)(c2cccc(-c3cccc(Cl)c3)c2)C2=NCCCN12 (stereo not shown) [Example 177, 3-[6-Amino-8-(3′-chlorobiphenyl-3-yl)-2,3,4,8-tetrahydroimidazo[1,5-a]pyrimidin-8-yl]phenyl trifluoromethanesulfonate]
6.29	COc1cccc(-c2cccc(C3(c4ccccc4)N=C(N)N4CCCN=C43)c2)c1 (stereo not shown) [Example 30, 8-(3′-Methoxybiphenyl-3-yl)-8-phenyl-2,3,4,8-tetrahydroimidazo[1,5-a]pyrimidin-6-amine hydrochloride]
7.04	COc1cccc(C2(c3cccc(-c4cc(Cl)cc(Cl)c4)c3)N=C(N)N3CCCN=C32)c1 (stereo not shown) [Example 178, 8-(3′,5′-Dichlorobiphenyl-3-yl)-8-(3-methoxyphenyl)-2,3,4,8-tetrahydroimidazo[1,5-a]pyrimidin-6-amine]
7.49	COc1ccc(C2(c3cccc(-c4cc(Cl)cc(Cl)c4)c3)N=C(N)N3CC(F)(F)CN=C32)cc1 (stereo not shown) [Example 132, 8-(3′,5′-Dichlorobiphenyl-3-yl)-3,3-difluoro-8-(4-methoxyphenyl)-2,3,4,8-tetrahydroimidazo[1,5-a]pyrimidin-6-amine 0.75 acetate]
